Test system: human esophageal cancer Eca-109 nude mouse xenograft tumor
Experiment: Efficacy of DVDMS-PDT combined with PD-1 antibody in mouse model of human esophageal cancer Eca-109
Format: in vivo, nu/nu nude mice
Details: Only received DVDMS-PDT, DVDMS 2 mg/kg, laser 70 J/cm2, Day 21
Description: Example 1. Efficacy of combined therapy of sodium porphyrine-mediated photodynamic therapy (DVDMS-PDT) with PD-1 antibody in a mouse model of human esophageal cancer Eca-109
Purpose: observe the growth-inhibiting effect of DVDMS-PDT combined with PD-1 antibody (Pembrolizumab) on human esophageal cancer Eca-109 nude mouse xenograft tumor, optimize the time window between DVDMS-PDT and PD-1 antibody treatment, and provide a reference for clinical application.
Harvest human esophageal cancer Eca-109 cells at logarithmic growth phase and dilute with culture medium to a cell concentration of 5*10^7 cells/mL, and inoculate subcutaneously at the right thigh root of nude mice at an injection of 0.1 mL per nude mouse. And 7-10 days later, grow the subcutaneous tumor at the root of the thigh on the right side of the nude mouse until the diameter is about 5-8 mm for later use.
Select qualified tumor-bearing mouse models as described above, measure the length and the width of the tumors using a vernier caliper, and stratify and group the mice according to tumor size, with 6 mice in each group. Prepare the sodium porphyrine DVDMS-2 for injection 24 hours before the experiment, and refrigerate in the dark before use. Administer DVDMS-2 via tail vein at a dose of 2 mg/kg body weight (Day-1), followed by PDT treatment 24 hours later (Day 0). […]

## C=CC1=C(C)c2cc3[nH]c(cc4nc(cc5[nH]c(cc1n2)c(C)c5C(C)OC(C)C1=C(C)c2cc5[nH]c(cc6nc(cc7[nH]c(cc1n2)c(C)c7CCC(=O)[O-])C(CCC(=O)[O-])=C6C)c(C)c5C=C)C(C)=C4CCC(=O)[O-])c(CCC(=O)[O-])c3C.[Na+].[Na+].[Na+].[Na+] (centres unmarked) [DVDMS-PDT, bis [1-[6,7-sodium dipropionate-1,3,5,8-tetramethyl-2-vinyl-4-porphine]ethyl]ether]
  Tumor growth inhibition rate(%): 66.8%
In g (unit assumed)
  Tumor weight: 0.43 ± 0.58
